Laboratory results taken from US8772250B2, “Compositions and methods for treating ischemia and ischemia-reperfusion injury” (Ischemix, LLC, priority 2010, dated 2014).
Read-outs that look alike come from different tables or passages of the source.

Experiment: Pharmacokinetic evaluation in humans
Assay type: in vivo
Conditions: human; for CL renal: plasma and urine; for AUC(0-inf) / clearance / Cmax / Vd / half-life / AUC(0-t): plasma
Protocol: Plasma and urine RLip-EA-OH concentrations were measured at BASi, Inc. (West Lafayette, Ind.) using a LC/MS/MS method with positive turbo ion spray, in the multiple reaction-monitoring mode. The quantifiable range for human plasma was 1.00 to 500 ng/mL and QC samples were included at 3.00, 75.0 and 375 ng/mL.
The PK population included subjects who received RLip-EA-OH and had ≧1 post-dose PK measurement. […] Plasma samples from 24 subjects (6 RLip-EA-OH subjects per cohort) were analyzed (Tables 16 and 17).

## C[C@H](NC(=O)[C@H](CCC(=O)O)NC(=O)CCCC[C@@H]1CCSS1)C(=O)O [RLip-EA-OH, N-(R)-lipoyl-L-glutamyl-L- alanine]
20 mg, noncompartmental, read-out: Renal clearance, Mean (SD) (converted)
  CL renal: 168 mL/min
20 mg, noncompartmental, read-out: Renal clearance, Median (converted)
  CL renal: 186 mL/min
20 mg, noncompartmental, read-out: Renal clearance, Minimum, maximum
  CL renal: 80.8 to 255 mL/min
60 mg, noncompartmental, read-out: Renal clearance, Mean (SD) (converted)
  CL renal: 181 mL/min
60 mg, noncompartmental, read-out: Renal clearance, Median (converted)
  CL renal: 188 mL/min
60 mg, noncompartmental, read-out: Renal clearance, Minimum, maximum
  CL renal: 135 to 220 mL/min
150 mg, noncompartmental, read-out: Renal clearance, Mean (SD) (converted)
  CL renal: 124 mL/min
150 mg, noncompartmental, read-out: Renal clearance, Median (converted)
  CL renal: 98 mL/min
150 mg, noncompartmental, read-out: Renal clearance, Minimum, maximum
  CL renal: 58.5 to 243 mL/min
300 mg, noncompartmental, read-out: Renal clearance, Mean (SD) (converted)
  CL renal: 141 mL/min
300 mg, noncompartmental, read-out: Renal clearance, Median (converted)
  CL renal: 140 mL/min
300 mg, noncompartmental, read-out: Renal clearance, Minimum, maximum
  CL renal: 85.2 to 200 mL/min
20 mg, compartmental, read-out: AUCinf, Mean (SD)
  AUC(0-inf): 621 ng·h/mL
20 mg, compartmental, read-out: AUCinf, Median
  AUC(0-inf): 614 ng·h/mL
20 mg, compartmental, read-out: AUCinf, Minimum, maximum
  AUC(0-inf): 474 to 787 ng·h/mL
20 mg, compartmental, read-out: CL, Mean (SD) (converted)
  clearance: 557 mL/min
20 mg, compartmental, read-out: CL, Median (converted)
  clearance: 545 mL/min
20 mg, compartmental, read-out: CL, Minimum, maximum
  clearance: 423 to 703 mL/min
20 mg, compartmental, read-out: Estimated Cmax, Mean (SD)
  Cmax: 2360 ng/mL
20 mg, compartmental, read-out: Estimated Cmax, Median
  Cmax: 2480 ng/mL
20 mg, compartmental, read-out: Estimated Cmax, Minimum, maximum
  Cmax: 1360 to 3340 ng/mL
20 mg, compartmental, read-out: Vss, Mean (SD)
  Vd: 16 L
20 mg, compartmental, read-out: Vss, Median
  Vd: 16 L
20 mg, compartmental, read-out: Vss, Minimum, maximum
  Vd: 11 to 20 L
20 mg, compartmental, read-out: t1/2, Mean (SD) (converted)
  half-life: 1 h
20 mg, compartmental, read-out: t1/2, Median (converted)
  half-life: 0.8 h
20 mg, compartmental, read-out: t1/2, Minimum, maximum
  half-life: 0.6 to 1.6 h
20 mg, noncompartmental, read-out: AUC0-t, Mean (SD)
  AUC(0-t): 581 ng·h/mL
20 mg, noncompartmental, read-out: AUC0-t, Median
  AUC(0-t): 556 ng·h/mL
20 mg, noncompartmental, read-out: AUC0-t, Minimum, maximum
  AUC(0-t): 466 to 717 ng·h/mL
20 mg, noncompartmental, read-out: AUCinf, Mean (SD)
  AUC(0-inf): 583 ng·h/mL
20 mg, noncompartmental, read-out: AUCinf, Median
  AUC(0-inf): 558 ng·h/mL
20 mg, noncompartmental, read-out: AUCinf, Minimum, maximum
  AUC(0-inf): 467 to 718 ng·h/mL
20 mg, noncompartmental, read-out: CL, Mean (SD) (converted)
  clearance: 588 mL/min
20 mg, noncompartmental, read-out: CL, Median (converted)
  clearance: 598 mL/min
20 mg, noncompartmental, read-out: CL, Minimum, maximum
  clearance: 465 to 713 mL/min
20 mg, noncompartmental, read-out: Cmax, Mean (SD)
  Cmax: 1830 ng/mL
20 mg, noncompartmental, read-out: Cmax, Median
  Cmax: 1840 ng/mL
20 mg, noncompartmental, read-out: Cmax, Minimum, maximum
  Cmax: 1220 to 2420 ng/mL
20 mg, noncompartmental, read-out: Vss, Mean (SD)
  Vd: 18.5 L
20 mg, noncompartmental, read-out: Vss, Median
  Vd: 18.7 L
20 mg, noncompartmental, read-out: Vss, Minimum, maximum
  Vd: 14.4 to 22.4 L
20 mg, noncompartmental, read-out: t1/2, Mean (SD) (converted)
  half-life: 0.86 h
20 mg, noncompartmental, read-out: t1/2, Median (converted)
  half-life: 0.76 h
20 mg, noncompartmental, read-out: t1/2, Minimum, maximum
  half-life: 0.61 to 1.41 h
20 mg, read-out: CL (converted)
  clearance: 588 mL/min
60 mg, compartmental, read-out: AUCinf, Mean (SD)
  AUC(0-inf): 2260 ng·h/mL
60 mg, compartmental, read-out: AUCinf, Median
  AUC(0-inf): 1910 ng·h/mL
60 mg, compartmental, read-out: AUCinf, Minimum, maximum
  AUC(0-inf): 1770 to 3160 ng·h/mL
60 mg, compartmental, read-out: CL, Mean (SD) (converted)
  clearance: 467 mL/min
60 mg, compartmental, read-out: CL, Median (converted)
  clearance: 523 mL/min
60 mg, compartmental, read-out: CL, Minimum, maximum
  clearance: 317 to 565 mL/min
60 mg, compartmental, read-out: Estimated Cmax, Mean (SD)
  Cmax: 6870 ng/mL
60 mg, compartmental, read-out: Estimated Cmax, Median
  Cmax: 6290 ng/mL
60 mg, compartmental, read-out: Estimated Cmax, Minimum, maximum
  Cmax: 5520 to 9050 ng/mL
60 mg, compartmental, read-out: Vss, Mean (SD)
  Vd: 14 L
60 mg, compartmental, read-out: Vss, Median
  Vd: 15 L
60 mg, compartmental, read-out: Vss, Minimum, maximum
  Vd: 10 to 17 L
60 mg, compartmental, read-out: t1/2, Mean (SD) (converted)
  half-life: 1.5 h
60 mg, compartmental, read-out: t1/2, Median (converted)
  half-life: 1.4 h
60 mg, compartmental, read-out: t1/2, Minimum, maximum
  half-life: 1.1 to 2.6 h
60 mg, noncompartmental, read-out: AUC0-t, Mean (SD)
  AUC(0-t): 2250 ng·h/mL
60 mg, noncompartmental, read-out: AUC0-t, Median
  AUC(0-t): 1980 ng·h/mL
60 mg, noncompartmental, read-out: AUC0-t, Minimum, maximum
  AUC(0-t): 1720 to 3110 ng·h/mL
60 mg, noncompartmental, read-out: AUCinf, Mean (SD)
  AUC(0-inf): 2260 ng·h/mL
60 mg, noncompartmental, read-out: AUCinf, Median
  AUC(0-inf): 1980 ng·h/mL
60 mg, noncompartmental, read-out: AUCinf, Minimum, maximum
  AUC(0-inf): 1720 to 3110 ng·h/mL
60 mg, noncompartmental, read-out: CL, Mean (SD) (converted)
  clearance: 467 mL/min
60 mg, noncompartmental, read-out: CL, Median (converted)
  clearance: 505 mL/min
60 mg, noncompartmental, read-out: CL, Minimum, maximum
  clearance: 322 to 582 mL/min
60 mg, noncompartmental, read-out: Cmax, Mean (SD)
  Cmax: 6560 ng/mL
60 mg, noncompartmental, read-out: Cmax, Median
  Cmax: 6840 ng/mL
60 mg, noncompartmental, read-out: Cmax, Minimum, maximum
  Cmax: 5190 to 7990 ng/mL
60 mg, noncompartmental, read-out: Vss, Mean (SD)
  Vd: 14.9 L
60 mg, noncompartmental, read-out: Vss, Median
  Vd: 14.8 L
60 mg, noncompartmental, read-out: Vss, Minimum, maximum
  Vd: 11.3 to 18.6 L
60 mg, noncompartmental, read-out: t1/2, Mean (SD) (converted)
  half-life: 1.21 h
60 mg, noncompartmental, read-out: t1/2, Median (converted)
  half-life: 1.26 h
60 mg, noncompartmental, read-out: t1/2, Minimum, maximum
  half-life: 0.84 to 1.5 h
150 mg, compartmental, read-out: AUCinf, Mean (SD)
  AUC(0-inf): 7030 ng·h/mL
150 mg, compartmental, read-out: AUCinf, Median
  AUC(0-inf): 6920 ng·h/mL
150 mg, compartmental, read-out: AUCinf, Minimum, maximum
  AUC(0-inf): 4890 to 9610 ng·h/mL
150 mg, compartmental, read-out: CL, Mean (SD) (converted)
  clearance: 370 mL/min
